Data reported in patent US4889801A (Daiichi Pure Chemicals Co., Ltd., priority 1986, dated 1989).

System: 3α-hydroxysteroid oxidase
Experiment: Relative activities of the 3α-hydroxysteroid oxidase for various substrates
Assay type: biochemical, Pseudomonas testosterone ATCC 11996
Settings: substrate of the oxidase; R.A. of cholic acid being 100
Protocol: Thereafter, the microorganism was cultured at the same temperature for 10-24 hours. After completion of the culture, the resultant culture broth was centrifuged to separate and collect cells. The thus-collected cells were suspended at 5° C. in 5 volumes of a 0.02 M phosphate buffer of pH 7.0, which contained 1% (w/v) of "Triton X-100" (BDH Ltd.), to a total volume of 1 l. By a cell disrupter, DINO-MILL (trade mark; manufactured by Willy A. Bachofen Maschinenfabrik AG), the cells were disrupted to release the enzyme. […] The extract was then added with 430 g of ammonium sulfate to a final concentration of 65% saturation, the precipitated fraction was collected by centrifugation. The precipitate was dissolved in a 0.lM phosphate buffer (pH 7) containing 0.1% of "Triton X-100" and the resultant mixture was dialyzed for 24 hours against the same buffer in order to remove any remaining ammonium sulfate.
An azide was added as a preservative to the enzyme solution.

| SMILES | R.A. (relative activity) [%] |
| --- | --- |
| C[C@H](CCC(=O)O)[C@H]1CC[C@H]2[C@@H]3[C@H](O)C[C@@H]4C[C@H](O)CC[C@]4(C)[C@H]3CC[C@]12C [Chenodeoxycholic acid] | 89 |
| C[C@H](CCC(=O)O)[C@H]1CC[C@H]2[C@@H]3[C@H](O)C[C@@H]4C[C@H](O)CC[C@]4(C)[C@H]3C[C@H](O)[C@]12C [Cholic acid] | 100 |
| CC(C)CCC[C@@H](C)[C@H]1CC[C@H]2[C@@H]3CC=C4C[C@@H](O)CC[C@]4(C)[C@H]3CC[C@]12C [Cholesterol] | 0 |
| C[C@H](CCC(=O)NCC(=O)O)[C@H]1CC[C@H]2[C@@H]3[C@H](O)C[C@@H]4C[C@H](O)CC[C@]4(C)[C@H]3C[C@H](O)[C@]12C [Glycocholic acid] | 95 |
| C[C@H](CCC(=O)O)[C@H]1CC[C@H]2[C@@H]3CC[C@@H]4C[C@H](O)CC[C@]4(C)[C@H]3C[C@H](O)[C@]12C [Deoxycholic acid] | 86 |
| C[C@]12CCC(=O)C[C@H]1CC[C@@H]1[C@@H]2CC[C@]2(C)C(=O)CC[C@@H]12 [5β-Androstan-3,17-dione] | 18 |
| C[C@H](CCC(=O)O)[C@H]1CC[C@H]2[C@@H]3CC[C@@H]4C[C@H](O)CC[C@]4(C)[C@H]3CC[C@]12C [Cithocholic acid] | 57 |
| C[C@]12CC[C@@H](O)C[C@@H]1CC[C@@H]1[C@@H]2CC[C@]2(C)C(=O)CC[C@@H]12 [5α-Androstan-3α-ol-17-one] | 0 |
| C[C@]12CCC(=O)C[C@@H]1CC[C@@H]1[C@@H]2CC[C@]2(C)C(=O)CC[C@@H]12 [5α-Androstan-3,17-dione] | 0 |
| C[C@]12CC[C@@H](O)C[C@H]1CC[C@@H]1[C@@H]2CC[C@]2(C)C(=O)CC[C@@H]12 [Ethiocholan-3α-ol-17-one] | 140 |
| C[C@]12CC[C@H]3[C@@H](CCC4=CC(=O)CC[C@@]43C)[C@@H]1CC[C@@H]2O [Testosterone] | 0 |

System: 3α-hydroxysteroid oxidase
Experiment: Enzymatic characteristics: substrate specificity and Km value
Assay type: biochemical, Pseudomonas testosterone ATCC 11996
Settings: not given

| SMILES | Substrate specificity (oxidase acts on substrate or not) |
| --- | --- |
| C[C@@]12CCC[C@H]1[C@@H]1CC[C@@H]3C[C@H](O)CC[C@]3(C)[C@H]1CC2 [5β-androstan-3α-ol] | acts on |

Same assay, conditions: against ethiocholan-3α-ol-17-one

| SMILES | Km [µM] |
| --- | --- |
| C[C@]12CC[C@@H](O)C[C@H]1CC[C@@H]1[C@@H]2CC[C@]2(C)C(=O)CC[C@@H]12 [Ethiocholan-3α-ol-17-one] | 800 |
